# Measurements taken from patent publication US20090093454A1, “Chemical Compounds” (priority 2005, published 2009).
# Counter-ions that a name gives are not always drawn.
# System: HIV-1 gp160 (HXB2 strain) HEK-293 cells fusing with HOS (hCXCR4/hCCR5/hCD4/pHIV-LTR-luciferase) cells
# Assay: Cell/cell fusion assay (luciferase)
# Format: cell-based
# Settings: Homo sapiens, HEK (tat/rev/gp160 HXB2) + HOS cells, 24 h, read-out: Fusion assay (pIC50) (converted)
# Text: The complete coding sequences of HIV-1 tat (GenBank Accession No. X07861) and rev (GenBank Accession No. M34378) were cloned into pcDNA3.1 expression vectors containing G418 and hygromycin resistance genes, respectively. The complete coding sequence of the HIV-1 (HXB2 strain) gp160 envelope gene (nucleotide bases 6225-8795 of GenBank Accession No. K03455) was cloned into plasmid pCRII-TOPO. The three HIV genes were additionally inserted into the baculovirus shuttle vector, pFastBacMam1, under the transcriptional control of the CMV promoter. A construction of the pHIV-I LTR containing mutated NFkB sequences linked to the luciferase reporter gene was prepared by digesting pcDNA3.1, containing the G418 resistance gene, with Nru I and Bam HI to remove the CMV promoter. LTR-luc was then cloned into the Nru I/Bam HI sites of the plasmid vector. Plasmid preparations were performed after the plasmids were amplified in Escherichia coli strain DH5-alpha. The fidelity of the inserted sequences was confirmed by double-strand nucleotide sequencing using an ABI Prism Model 377 automated sequencer.
# Recombinant BacMam baculoviruses were constructed from pFastBacMam shuttle plasmids by using the bacterial cell-based Bac-to-Bac system. Viruses were propagated in Sf9 (Spodoptera frugiperda) cells cultured in Hink's TNM-FH Insect media supplemented with 10% (v/v) fetal bovine serum and 0.1% (v/v) pluronic F-68 according to established protocols.
# Human osteosarcoma (HOS) cells that naturally express human CXCR4 were transfected with human CCR5, human CD4 and the pHIV-LTR-luciferase plasmid using FuGENE 6 transfection reagent. Single cells were isolated and grown under selection condition in order to generate a stable HOS (hCXCR4/hCCR5/hCD4/pHIV-LTR-luciferase) clonal cell line. The cells were maintained in Dulbeccos modified Eagles media supplemented with 10% fetal calf serum (FCS), G418 (400 ug/ml), puromycin (1 ug/ml), mycophenolic acid (40 ug/ml), xanthine (250 ug/ml) and hypoxanthine (13.5 ug/ml) to maintain a selection pressure for cells expressing the LTR-luciferase, hCCR5 and hCD4, respectively. Human embryonic kidney (HEK-293) cells stably transfected to express the human macrophage scavenging receptor (Class A, type 1; GenBank Accession No. D90187), were maintained in DMEM/F-12 media (1:1) supplemented with 10% FCS and 1.5 ug/ml puromycin. The expression of this receptor by the HEK-293 cells enhances their ability to stick to tissue culture treated plasticware.
# HEK-293 cells were harvested using enzyme-free cell dissociation buffer. The cells were resuspended in DMEM/F-12 media supplemented with 10% FCS and 1.5 ug/ml and counted. Tranductions were performed by direct addition of BacMam baculovirus containing insect cell media to cells. The cells were simultaneously transduced with BacMam baculovirus expressing HIV-1 tat, HIV-1 rev and HIV-1 gp160 (from the HXB2 HIV strain). Routinely an MOI of 10 of each virus was added to the media containing the cells. 2 mM butyric acid was also added to the cells at this stage to increase protein expression in transduced cells. The cells were subsequently mixed and seeded into a flask at 30 million cells per T225. The cells were incubated at 37° C., 5% CO2, 95% humidity for 24 h to allow for protein expression.
# HEK and HOS cells were harvested in DMEM/F-12 media containing 2% FCS and DMEM media containing 2% FCS, respectively, with no selection agents added. Compounds were plated as 1 ul spots in 100% DMSO on a 96-well CulturPlate plates. HOS cells (50 ul) were added first to the wells, followed immediately by the HEK cells (50 ul). The final concentration of each cell type was 20,000 cells per well. Following these additions, the cells were returned to a tissue culture incubator (37° C.; 5% CO2/95% air) for an additional 24 h.
# Following the 24 h incubation, total cellular luciferase activity was measured using the LucLite Plus assay kit (Packard, Meridien, Conn.). […]
row,SMILES,IC50 [nM]
1,"CN(C)CCCn1c(CN2CCC[C@@H]3CCc4cccnc4[C@@H]32)nc2ccccc21 [Example 11A, (3-{2-[(4aS,10bR)-3,4,4a,5,6,10b-Hexahydro-1,10-phenanthrolin-1(2H)-ylmethyl]-1H-benzimidazol-1-yl}propyl)dimethylamine]",1260
2,"c1cnc2c(c1)CC[C@@H]1CCCN(Cc3nc4ccccc4n3Cc3ccncc3)[C@H]21 (racemic) [Example 12, (cis)-1-{[1-(4-Pyridinylmethyl)-1H-benzimidazol-2-yl]methyl}-1,2,3,4,4a,5,6,10b-octahydro-1,10-phenanthroline]",7940
3,"c1cnc2c(c1)CC[C@H]1CCCN(Cc3nc4ccccc4[nH]3)[C@H]21 (racemic) [Example 6, (trans)-1-(1H-Benzimidazol-2-ylmethyl)-1,2,3,4,4a,5,6,10b-octahydro-1,10-phenanthroline]",1120
4,"CN(C)CCCn1c(CN2CCC[C@@H]3CCc4cccnc4[C@H]32)nc2ccccc21 (stereo in doubt) [Example 10B, (3-{2-[(4aS,10bS)-3,4,4a,5,6,10b-Hexahydro-1,10-phenanthrolin-1(2H)-ylmethyl]-1H-benzimidazol-1-yl}propyl)dimethylamine]",200
5,"NCCCn1c(CN2CCC[C@@H]3CCc4cccnc4[C@H]32)nc2ccccc21 (racemic) [Example 8, (trans)-3-[2-(3,4,4a,5,6,10b-Hexahydro-1,10-phenanthrolin-1(2H)-ylmethyl)-1H-benzimidazol-1-yl]-1-propanamine]",490
6,"CN1CCN(c2cccc3nc(CN4CCC[C@H]5CCc6cccnc6[C@H]54)cn23)CC1 (racemic) [Example 15B, (cis)-1-{[5-(4-Methyl-1-piperazinyl)imidazo[1,2-a]pyridin-2-yl]methyl}-1,2,3,4,4a,5,6,10b-octahydro-1,10-phenanthroline]",5.5
7,"CN1CCN(c2cccc3nc(CN4CCC[C@H]5CCc6cccnc6[C@H]54)[nH]c23)CC1 (racemic) [Example 33, (cis)-1-{[4-(4-Methyl-1-piperazinyl)-1H-benzimidazol-2-yl]methyl}-1,2,3,4,4a,5,6,10b-octahydro-1,10-phenanthroline]",0.398
8,"NCCCn1c(CN2CCC[C@H]3CCc4cccnc4[C@H]32)nc2ccccc21 (racemic) [Example 9, (cis)-3-[2-(3,4,4a,5,6,10b-Hexahydro-1,10-phenanthrolin-1(2H)-ylmethyl)-1H-benzimidazol-1-yl]-1-propanamine]",89.1
9,"CN1CCN(c2cccc3nc(CN4CCC[C@@H]5CCc6cccnc6[C@@H]54)cn23)CC1 [Example 22, (4aS,10bR)-1-{[5-(4-Methyl-1-piperazinyl)imidazo[1,2-a]pyridin-2-yl]methyl}-1,2,3,4,4a,5,6,10b-octahydro-1,10-phenanthroline]",158
10,"CN1CCN(c2cccc3[nH]c(CN4CCC[C@@H]5CCc6cccnc6[C@H]54)nc23)CC1 (racemic) [Example 32, (trans)-1-{[4-(4-Methyl-1-piperazinyl)-1H-benzimidazol-2-yl]methyl}-1,2,3,4,4a,5,6,10b-octahydro-1,10-phenanthroline trifluoroacetate]",200
11,"CN(C)CCCn1c(CN2CCC[C@H]3CCc4cccnc4[C@H]32)nc2ccccc21 [Example 11B, (3-{2-[(4aR,10bS)-3,4,4a,5,6,10b-Hexahydro-1,10-phenanthrolin-1(2H)-ylmethyl]-1H-benzimidazol-1-yl}propyl)dimethylamine]",25.1
12,"CN1CCN(c2cccc3nc(CN4CCC[C@H]5CCc6cccnc6[C@H]54)cn23)CC1 [Example 27, (4aR,10bS)-1-{[5-(4-Methyl-1-piperazinyl)imidazo[1,2-a]pyridin-2-yl]methyl}-1,2,3,4,4a,5,6,10b-octahydro-1,10-phenanthroline]",1.26
13,"CN1CCCC(Cn2c(CN3CCC[C@H]4CCc5cccnc5[C@H]43)nc3ccccc32)C1 (mixture of isomers) [Example 13, (cis)-1-({1-[(1-Methyl-3-piperidinyl)methyl]-1H-benzimidazol-2-yl}methyl)-1,2,3,4,4a,5,6,10b-octahydro-1,10-phenanthroline]",31.6
14,"CN(C)CCCn1c(CN2CCC[C@H]3CCc4cccnc4[C@@H]32)nc2ccccc21 (stereo in doubt) [Example 10A, (3-{2-[(4aR,10bR)-3,4,4a,5,6,10b-Hexahydro-1,10-phenanthrolin-1(2H)-ylmethyl]-1H-benzimidazol-1-yl}propyl)dimethylamine]",417
15,"c1cnc2c(c1)CC[C@@H]1CCCN(Cc3nc4ccccc4[nH]3)[C@H]21 (racemic) [Example 7, (cis)-1-(1H-Benzimidazol-2-ylmethyl)-1,2,3,4,4a,5,6,10b-octahydro-1,10-phenanthroline]",3160
16,"CN1CCN(c2cccc3nc(CN4CCC[C@@H]5CCc6cccnc6[C@H]54)cn23)CC1 (racemic) [Example 15A, (trans)-1-{[5-(4-Methyl-1-piperazinyl)imidazo[1,2-a]pyridin-2-yl]methyl}-1,2,3,4,4a,5,6,10b-octahydro-1,10-phenanthroline]",77.6
